Data on five molecules can be found in patent US20230277449A1, “ORAL CAVITY POLYMERIC DELIVERY SYSTEMS” (YISSUM RESEARCH DEVELOPMENT COMPANY OF THE HEBREW …, priority 2020, published 2023).

Values joined by “and” are separate entries in the source; they are usually repeats but may differ in a detail not shown here. Equal values may be shown once. Read-outs that look alike come from different tables or passages of the source.

For data set [1] the following is noted: pig, in vivo, iv, 1 mg/kg.
Method: 2.1.7 In-vivo protocol of IV administration: Domestic female pigs (sus scrofa domesticus) of 35-40 kg were allowed to acclimate before the experiment. Pigs were fasted overnight before the experiments. On the morning of the experiment pigs were anesthetized by xylazine 1 mg/kg, midazolam 0.04 mg/kg, ketamine 5 mg/kg and propofol 4 mg/kg. Pigs were positioned on their back. Endotracheal tube was inserted, and pigs were respired with oxygen. […] Catheter was inserted into ear vein through which physiological saline was administered. Pigs received amoxicillin 15 mg/kg antibiotic and tolfenamic acid 2 mg/kg analgesic. An intra-jugular catheter was inserted for blood sampling. Pigs were constantly monitored for their respiration rate, rectal temperature, O2 saturation, heart rate and blood pressure. Cardiovascular parameters were obtained by blood pressure monitor with porcine adapted front leg cuff. […] Plasma was collected into tubes containing 10 µl mercaptoethanol and stored at -80° C. pending analysis. Isoflurane anesthesia was terminated, and pigs were recovered under veterinary surveillance to consciousness.
The samples were reconstituted in 100 µl 1:4 MeOH:DDW solution containing 0.01%^v/v formic acid and 0.1%^v/v mercaptoethanol and injected into LC-MS-MS system.
2.1.12 Chromatographic analysis of in-vivo samples: The chromatography was performed using a Shimadzu UHPLC System. The chromatographic separations were performed on a Kinetex™ (Phenomenex, CA, USA) column (EVO C18, 2.6 µm, 100 Å, 100 × 2.1 mm), protected by a SecurityGuard™ (Phenomenex, CA, USA) ULTRA cartridge (C18, 4 × 2 mm). The injection volume was 5 µl, temperature was 40° C.
Following this analysis PK parameters were obtained.
For data set [2] the following is noted: cited from earlier work.
A short description of data set [3]: In-vivo oral mucosal administration of CBD and TPH in mucoadhesive shell to pigs.
From the text: 4.1.6 In-vivo experiment protocol: Domestic female pigs (sus scrofa domesticus) of 35 - 40 kg body weight were obtained from Lahav ltd. […] After arrival to the unit for experimental surgery at Hadassah Ein-Kerem medical center (Jerusalem, Israel) they were allowed to acclimate during a period of a week with free access to food and water, and were under veterinary surveillance. Pigs were fasted overnight before the experiments. On the morning of the experiment pigs were anesthetized by xylazine 1 mg/kg, midazolam 0.04 mg/kg, ketamine 5 mg/kg and propofol 4 mg/kg. They were positioned on their back. Endotracheal tube was inserted, and pigs were respired with oxygen. […] Catheter was inserted into the ear vein through which physiological saline was administered. Pigs received amoxicillin 15 mg/kg antibiotic and tolfenamic acid 2 mg/kg analgesic. An intra-jugular catheter was inserted for blood sampling. Pigs were constantly monitored for their respiration rate, rectal temperature, O2 saturation, heart rate and blood pressure. Cardiovascular parameters were obtained by blood pressure monitor with porcine adapted front leg cuff. […] A mucoadhesive “shell” was adhered to it and pressed with finger for 1 min, to ensure full adhesion. […] Visual inspection approved that the mucoadhesive “shell” was fully adhered to the mucosa and there were no leakages. […] Plasma was separated and stored at -80° C. pending analysis. At 8 hours mucoadhesive “shell” was removed, the mucosa was carefully cleaned with a gauze, so that no CBD and TPH will remain on its surface. At 12 hours pigs were euthanized by injection of overdose of KCl.
The samples were reconstituted in 100 µl 1:4 MeOH:DDW solution containing 0.01%^v/v formic acid and injected into LC-MS-MS.
4.1.9 Chromatographic analysis of CBD from in-vivo study: The chromatography was performed using a Thermo Scientific (San Jose, CA, USA) UHPLC System, which includes Dionex Pump with degasser module and an Accela Autosampler. […]
The nature of data set [4]: Monitored vital parameters after CBD and TPH administration to the mucosa of pigs. Format: in vivo, pig. The settings on record: median (lowest - highest). The text has this:
Israel. […] Pigs were fasted overnight before the experiments. […] They were positioned on their back.

The conditions of data set [5]: cited from earlier work. This is another data set of the same source.
Data set [6] is described as follows: Ex-vivo permeability of APO, MTP and ATN in Ussing diffusion chamber. The settings on record: for Papp at 0.1 mM: n=3. Format: in vitro ADME, pig. The text has this:
Each chamber includes a heating block for temperature control and needle valves for adjustment of carbogen gas flow for oxygenation and gas lift stirring. Buccal tissues of female pigs, ~100 kg, were used in the experiments. Pigs were exposed to anesthetic agents, antibiotics, contrast agents and sacrificed by over exposure to KC1. […] Immediately following euthanasia, buccal tissue was removed and placed in ice-cold modified Ringer’s buffer (pH 7.4). Buccal mucosa segments were trimmed to 800-1000 µm by surgical scissors and tweezers and mounted into Ussing diffusion chambers. The exposed tissue surface area was 0.5 cm^2 and buffered solutions volume in each cell was 3 ml. The system was preheated to 35° C. Modified Ringer buffer was added to the receiver compartment and simulated saliva buffer to the donor side. The tissue oxygenation and the solution mixing were performed by bubbling with carbogen gas. The system was equilibrated for 30 min followed by replacing the solutions and adding 20 µl of the test solutions to the donor side of the chamber to commence the experiment.
Solutions were freshly prepared on the days of the experiments. […] When testing the effect of organic solvents, 100 µl of the simulated saliva in the donor chamber were replaced by 100 µl of 1:1EtOH:PG solution. When testing the effect of NLF 70 µl of the simulated saliva in the donor chamber were replaced by 70 µl of NLF. […] The constituents are melted at 37° C. and mixed until a clear yellow homogenous solution is obtained.
3.1.3 Experimental protocol: 100 µl samples were taken from receiver compartment at the beginning of the experiments, at half an hour and every hour until the end of the experiments. 100 µl of fresh Ringer’s buffer solution were added each time to receiver compartment. The dilution of the concentration of tested substances in the receiver compartment was accounted for. […] All samples were stored at -20° C. pending analysis.
The analysis conditions were as follows: XTerra MS (Waters Inc.) C18 Column (3.5 µm, 2.1 mm × 100 mm), temperature 45° C., flow rate 0.2 ml/min and mobile phase with a linear gradient as detailed in Table 23.
Statistical significance was stated for p<0.05. […] Papp calculation and simulations of steady state plasma levels for in-vivo testing
Apparent permeability (Papp) is calculated by Eq. 5: […]

A further data set is described as follows: in vitro. Particulars: female, pig, pH 7.4.
The conditions of data set [7]: in vivo.
A short description of data set [8]: Insulin release from mucoadhesive tablets in physiologic media. Format: physicochemical. How it is done: Peptides or proteins stabilized or encapsulated into nanoparticles, microparticles or liposomes were mixed in CP and HPC as described above and compressed into tablets. In a typical example, insulin zinc salt powder at 1% of the solids was added to the tablet composition and compressed into tablets. Insulin was released for 10 h from the tablets when placed in physiologic media. PLGA microspheres loaded with 50% insulin prepared by precipitation of concentrated alcoholic-dichloromethane solution into an anti-solvent, heptane. Particles at 10% of the non-active agents were added to the tablet powder and compressed into tablets. Anti-inflammatory protein such as Adiponectin, antimicrobial and antiviral proteins are also considered for buccal delivery.

From the text for in vitro: Each chamber includes a heating block for temperature control and needle valves for adjustment of carbogen gas flow for oxygenation and gas lift stirring. Buccal tissues of female pigs, ~100 kg, were used in the experiments. […] Pigs were exposed to anesthetic agents, antibiotics, contrast agents and sacrificed by over exposure to KCl. […] Immediately following euthanasia, buccal tissue was removed and placed in ice-cold modified Ringer’s buffer (pH 7.4). Buccal mucosa segments were trimmed to 800-1000 µm by surgical scissors and tweezers and mounted into Ussing diffusional chambers. The exposed tissue surface area was 0.5 cm^2 and buffered solutions volume in each cell was 3 ml. The system was preheated to 35 (±1)°C. Modified Ringer’s buffer containing 4% bovine serum albumin was added to the receiver side and simulated saliva buffer to the donor side. The tissue oxygenation and the solution mixing were performed by bubbling with carbogen gas. The system was equilibrated for 30 min followed by replacing the solutions and adding 20 µl of the test solutions to the donor side of the chamber to commence the experiment.
4.1.12 Equations utilized: Apparent permeability (Papp) is calculated by Eq. 8: […]

For `CN1CCc2cccc3c2C1CC1=C3C(=O)C(=O)C=C1` (centres unmarked) [APO-quinone], in data set [1], the half-lives of metabolites was 25.5 (±2.0) min.

For `C=C(C)[C@@H]1CCC(C)=C[C@H]1c1c(O)cc(CCCCC)cc1O` [CBD, cannabidiol], in [2], the aqueous solubility was ~ 12 µg/ml and ~ 0.04 mM; the “log P” value is recorded as ~ 6. Moreover, the Css entry in [3] (~0.42 mg/kg CBD, 30.0 mg/ml, 8 h exposure) is “not reached”. Besides, in [4] (CBD with TPH), the “Diastolic blood press (mmHg)” value was 37 (29 - 46) mmHg, the “Heart rate (beats/min)” value was 98 (79 - 123) beats/min, the “O2 satur (%)” value is on record as 99 (90 - 100) % and the “Respiration rate (min^-1)” value is listed as 10 (10-13) min^-1. The “Systolic blood press (mmHg)” value in data set [4] (CBD with TPH) is 77 (68 - 87) mmHg. For the same molecule, the “Rectal temp (°C)” value in data set [4] (CBD ~0.42 mg/kg with TPH ~0.11 mg/kg, three pigs) was 37.4 (36.8 - 38.8) °C. For the same molecule, the “steady state volume of distribution” value in [5] (humans, IV administration) is on record as 30 L/kg.

One may read the Papp as the rate of passage across a membrane or cell layer, normalised by area and donor concentration. In the case of `COCCc1ccc(OCC(O)CNC(C)C)cc1` (centres unmarked) [MTP, metoprolol], in data set [6], the “Papp lower at pH 5.9 than at pH 7.4” value worked out at 2 fold. For the same molecule, in data set [6] (female, pig, pH 7.4 with 3.33% v/v of 1:1 ethanol: propylene glycol solution, read-out: Apparent permeability (Papp)), the apparent permeability coefficient (Papp) turned out to be 7.24 ×10⁻⁶ cm/s. In addition, the apparent permeability coefficient (Papp) at 0.1 mM in data set [6] (female, pig, simulated saliva pH 5.9, mean (±SD), read-out: Apparent permeability (Papp)) is 1.11 ×10⁻⁶ cm/s. The apparent permeability coefficient (Papp) at 0.1 mM in data set [6] (female, pig, simulated saliva pH 7.4, standard 0.1 mM, mean (±SD), read-out: Apparent permeability (Papp)) was 2.48 ×10⁻⁶ cm/s. In “in vitro”, the Papp at 6 h is 1.02 ×10⁻⁶ cm/s and the Papp at 6 h, 34 µg/ml worked out at 9.89 ×10⁻⁶ cm/s.

Regarding `Cn1c(=O)c2[nH]cnc2n(C)c1=O` [TPH, theophylline], the “log P” value in data set [2] was ~ 0. Further, the “TPH plateau higher than the highest plasma level of CBD” value in data set [3] (considering the molar dose administered) amounted to 300 fold. Besides, the “time to plateau of plasma levels (lag-time)” value in data set [3] (~0.11 mg/kg TPH, 8.0 mg/ml, 1.58 cm^2, three pigs) came to 5 h. Moreover, in [7], the “CL slower than CBD” value is ~ 50 fold. Also, the CL in data set [5] (in vivo) is 0.283 to 0.67 mL/min/kg.

In the case of “Insulin: insulin zinc salt powder at 1% of the solids in CP and HPC tablets”, the “duration of insulin release” value in [8] turned out to be 10 h.
